We go through 1 molecule from patent US10179802B2 (priority 2014, dated 2019).

The test system of this test is HVA calcium channel. Format: cell-based, rat.

Turning to `COC(=O)C1=C(C)NC(C)=C(C(=O)OC)C1c1ccccc1[N+](=O)[O-]` [Nifedipine], the current after loading is listed as −734.31 pA and the current before loading was −1471.35 pA. The inhibition rate (10 µM) stood at 50.09%.
